This is an account of results in US20250108051A1, “THERAPEUTIC AGENT FOR CANCER” (TOHOKU UNIVERSITY, priority 2022, published 2025).

Assay type in all cases: cell-based
Test [1] concerns WiDR (BRAF V600E-mutated colorectal cancer cell line). The test can be described thus: MTT assay, encorafenib + binimetinib with retinoid. Particulars: Test Example 6; concentration-dependent. The procedure:
(§1) RKO cells were seeded on a 96-well plate with the number of cells of 1.5×10^3 cells/well, CO115 cells were seeded on a 96-well plate with the number of cells of 2.5×10^3 cells/well, and HT29 cells and WiDR cells were respectively seeded on 96-well plates with the number of cells of 6×10^3 cells/well. After incubation for about 24 hours until the cell density reached 40% to 60%, the drug was administered. After incubation at 37° C. for 72 hours, the MTT assay was performed using Cell Counting Kit-8 (Dojindo Laboratories, Kumamoto, Japan). To each well was added 10 μl of Cell Counting Kit-8 solution, the plates were placed in a culture vessel at 5% CO2 and 37° C. for 120 minutes to perform a color reaction, and then the absorbance at 450 nm was measured and evaluated with a microplate reader SpectraMax M2e (Molecular Devices, Sunnyvale, CA, USA). Cells administered with 0.1% DMSO were used as a control. The above was performed three or more times as independent experiments.
(§2) In various kinds of colorectal cancer cell lines, the inhibition effect of a BRAF inhibitor (encorafenib) and an MEK inhibitor (binimetinib) for the viability of cells and the enhancement by ATRA were examined. […] The horizontal axis indicates component concentrations of encorafenib and binimetinib in a range of 0 μM to 10 μM, and the vertical axis indicates the cell viability when 0 μM, 1.0 μM, or 10 μM (each bar graph) of ATRA was administered. As shown in the drawing, encorafenib and binimetinib were used in an equal molar concentration.
(§3) As the compounds for acting on a retinoid receptor, retinol, tamibarotene, and bexarotene among the retinoids were used. As the cell lines, the colorectal cancer cell lines including RKO, HT29, CO115, WiDR, COLO205, and LIM2405 described above were used. As the BRAF inhibitor and the MEK inhibitor to be used in combination, a component (EB) obtained by mixing encorafenib and binimetinib in equal amounts was used as in Test Example 2.
(In general: Formazan colour is commonly taken as a measure of viable cells.)

In test [2] the test system is CO115 (BRAF V600E-mutated colorectal cancer cell line). As to the kind of experiment: MTT assay, encorafenib + binimetinib with retinoid. The procedure:
as §1, §2
(§4) As the compounds for acting and on a retinoid receptor, retinol, tamibarotene, bexarotene among the retinoids were used. As the cell lines, the above-described cell lines including RKO, HT29, and CO115 were used. As the BRAF inhibitor and the MEK inhibitor to be used in combination, a component (EB) obtained by mixing encorafenib and binimetinib in equal amounts was used as in Test Example 2.
as §3

Test [3] relates to HT29 (BRAF V600E-mutated colorectal cancer cell line). The test can be described thus: MTT assay, encorafenib + binimetinib with retinoid. The method, then:
as §1, §2, §4, §3

The test system of test [4] is RKO (BRAF V600E-mutated colorectal cancer cell line). The test can be described thus: MTT assay, encorafenib + binimetinib with retinoid. The method, then: as §1, §2, §4, §3
For a further test, the system named is LIM2405 cell line. As to the kind of experiment: MTT assay, encorafenib + binimetinib with retinoid. The conditions noted are these: Test Example 6; concentration-dependent. The procedure:
as §1, §3

The subject of the next test is COLO205 cell line. As to the kind of experiment: MTT assay, encorafenib + binimetinib with retinoid. Particulars: Test Example 6; concentration-dependent. The method, then: as §1, §3
The subject of test [5] is RKO cells, encorafenib/cetuximab resistant strain. The test can be described thus: Viability of encorafenib/cetuximab resistant strain with encorafenib and ATRA. The conditions noted are these: for IC50: Homo sapiens, RKO, Resistant Strain, read-out: IC50 (50% inhibition concentration). The procedure:
Encorafenib/cetuximab resistant strains were constructed, and the inhibitor enhancing effect of ATRA was examined for the resistant strains.
For the construction of the resistant strains, the above-described RKO cells were seeded in 15 mm dishes and a group in which the BRAF inhibitor Encorafenib and an anti-EGFR antibody Cetuximab were administered and a group in which the BRAF inhibitor Encorafenib, the MEK inhibitor Binimetinib, and the anti-EGFR antibody Cetuximab were administered were prepared.
The vertical axis represents the viability (ratio), and the horizontal axis represents the administration amount of encorafenib.

Test [6] has as its system RKO cells, sensitive strain. As to the kind of experiment: Viability of sensitive strain with encorafenib and ATRA. Particulars: for IC50: Homo sapiens, RKO, Sensitive Strain, read-out: IC50 (50% inhibition concentration).
The mark [7] stands for this setting: Test Example 3, EB 0.1 μM, retinol 30 μM or tamibarotene 30 μM.
Setting [8] is: Test Example 6, concentration-dependent, smaller concentrations than Test Example 3.
[9] abbreviates: Test Example 3, EB 0.01 μM, retinol, tamibarotene or bexarotene 1 μM.
Setting [10] is: Test Example 3, EB 0.1 μM, retinol 30 μM, tamibarotene 10 μM or bexarotene 10 μM.

Like-named read-outs stand apart in the source and are kept apart here.

With `CC1(C)CCC(C)(C)c2cc(NC(=O)c3ccc(C(=O)O)cc3)ccc21` [tamibarotene], the “cell viability on further adding a retinoid to EB” value (“cell viability” below) is recorded as “greatly decreased” in test [1]; “greatly reduced” in test [2] (setting [7]); “greatly decreased” in test [2] (setting [8]); “greatly reduced” in test [3] (setting [9]); “greatly decreased” in test [3] (setting [8]); “greatly reduced” in test [4] (setting [10]). Also, the “cell viability” value (in test [4] (setting [8]); in the test on LIM2405 cell line; with COLO205 cell line) was “greatly decreased” each time.
Turning to `CC1=C(/C=C/C(C)=C/C=C/C(C)=C/CO)C(C)(C)CCC1` [retinol], the “cell viability” value was “greatly decreased” in test [1]; “greatly reduced” in test [2] (setting [7]); “greatly decreased” in test [2] (setting [8]); “greatly reduced” in test [3] (setting [9]); “greatly decreased” in test [3] (setting [8]); “greatly reduced” in test [4] (setting [10]). The “cell viability” value (in test [4] (setting [8]); with LIM2405 cell line; with COLO205 cell line) was “greatly decreased” throughout.
For `COC(=O)N[C@@H](C)CNc1nccc(-c2cn(C(C)C)nc2-c2cc(Cl)cc(NS(C)(=O)=O)c2F)n1` [encorafenib], the IC50 was over 10 µM in test [5] (ATRA 0 μM), 1.58 µM in test [5] (ATRA 1 μM), 1.23 µM in test [6] (ATRA 0 μM) and 0.0046 µM in test [6] (ATRA 1 μM). In addition, the “viability (ratio)” value is listed as “around 0.3” in test [5] (resistant strain (R), ATRA 1 μM); “around 0.1” in test [6] (sensitive strain (S), ATRA 1 μM, encorafenib 0 to 10 μM); “around 0.3” in test [6] (sensitive strain, ATRA not administered).
With `C=C(c1ccc(C(=O)O)cc1)c1cc2c(cc1C)C(C)(C)CCC2(C)C` [bexarotene], the “cell viability” value is recorded as “greatly decreased” in test [1]; “greatly decreased” in test [2] (setting [8]); “greatly reduced” in test [3] (setting [9]); “greatly decreased” in test [3] (setting [8]); “greatly reduced” in test [4] (setting [10]); “greatly decreased” in test [4] (setting [8]). In addition, the “cell viability” value with LIM2405 cell line and in the test with COLO205 cell line was “greatly decreased” each time.
